Reference: patent US10532084B2, “Chondrocyte extracellular matrix-derived peptide” (EYEBIO KOREA, priority 2016, dated 2020)
“Also recorded” adds a separate entry of the source.

Columns and labels:
[1] = system: rabbit cornea burned with alkali; details: rabbit alkaline burn
Description: The rabbits were randomly divided into an alkaline burn group (n=5) and a peptide treated group (n=5). In the alkaline burn group, normal saline was administered 4 times daily and in the peptide-treated group, Hyp-[…] peptide of 10 mg/mL was administered 4 times daily, and the left eye was used as a control group.

[2] = system: human vascular endothelial cells (HUVEC); assay: Tubing assay (VEGF-induced tube formation); assay type: cell-based; details: 4 hours
Description: The antiangiogenic effect of hydroxy proline-GQDGLAGPK was confirmed by tubing assay using human vascular endothelial cells (HUVEC).
HUVEC cells were stained with calcein-AM and then dispensed on a Matrigel-coated 48-well plate, treated with collagen, CPI and CPII at concentrations together with 50 ng/ml of recombinant human VEGF, and after 4 hours of incubation at 37° C., tube formation was observed by fluorescence microscopy (Leica) and tube length was analyzed by Image lab software (Bio-Rad Laboratories).
Tubing assay using human vascular endothelial cells (HUVEC) was performed to confirm the anti-angiogenic effect of hydroxyl proline-GQDGLAGPK.

[3] = system: choroidal neovascularization (CNV); assay: Laser-induced choroidal neovascularization (CNV), lesion size by retina-choroid flat-mount; assay type: in vivo, C57BL/6 mice; details: mouse, laser irradiation
Description: C57BL/6 mice were purchased from Orient Bio and the animal experiments was carried out in accordance with the guidelines approved by the University of Inje (No, 2013-053) and ARVO regarding animal use for eye and vision studies. 6-week-old C57BL/6 mice were treated with diode green laser (532 nm, 150 mW, 0.1 sec, […], photocoagulator) to damage the retinal optic nerve area. […] The above experiment for each experiment group was performed using both eyes of five mice each. […]
The mouse was anesthetized and injected with 25 mg/ml of FITC-dextran in […] of retro-orbital. After 30 minutes, the mouse was euthanized and the eyeball was extracted and fixed with 10% formalin and then, the cornea and lens were removed and flat mounted on the cover glass. The neovasculature stained with FITC-dextran was observed by fluorescence microscopy (Leica) and the lesion size was measured by Image J program. […]

VEGF, ICAM and MCP-1 = assay: Quantitative real-time RT-PCR of retina and choroid, laser CNV model; assay type: in vivo, C57BL/6 mice; details: mouse, 14 days after laser, 5 μg
Description: In order to confirm the inhibitory effect of hydroxy proline-GQDGLAGPK on neovascularization-related gene expression, RNA was extracted using RNeasy Mini kit (Qiagen) in mixture of retina and choroid of extracted mice eyeballs, and cDNA was synthesized by using oligo(dT) primer and reverse transcriptase. PCR products were amplified using the specific primer set (COSMOGENETECH, Korea) shown in Table 1 and SYBR Green PCR 2X PreMix (Enzynomics) and for the PCR conditions, the samples were incubated at 95° C. for 10 minutes, and 40 PCR cycles at 95° C. for 15 seconds, 60° C. for 30 seconds and 72° C. for 15 seconds, were performed. Relative quantification was calculated using 2-(DDCT) method [Livak and Schmittgen, 2001; DDCT=(CT, target-CT, actin) control group (CT, target-CT, actin) control group].
After 14 days of laser irradiation in mouse, RNA was extracted from retina and choroid to analyze the gene expression by real-time RT-PCR.

[4] = system: VEGF, VEGFR-1 (Flt-1), VEGR-2 (Flk-1) and Angiopoietin 2; details: mouse, 14 days after laser, 5 μg
Description: C57BL/6 mice were purchased from Orient Bio and the animal experiments was carried out in accordance with the guidelines approved by the University of Inje (No, 2013-053) and ARVO regarding animal use for eye and vision studies. 6-week-old C57BL/6 mice were treated with diode green laser (532 nm, 150 mW, 0.1 sec, […], photocoagulator) to damage the retinal optic nerve area. Immediately after laser irradiation, CP1, CPII and positive control group Avastin were dissolved in PBS and administered […] each per a day in the eyeball for 5 days. The above experiment for each experiment group was performed using both eyes of five mice each.

corneal epithelial cell = assay: Corneal epithelial cell detachment (H&E), dry eye model; assay type: in vivo, NOD.B10.H2b mice
Description: (§1) NOD.B10.H2^b mice were purchased from Jackson Laboratory (Bar Harbor, Me., USA). Animal experiments were carried out in accordance with the guidelines approved by the University of Inje (No.; 2014-029) and ARVO regarding animal use for eye and vision research. NOD.B10.H2^b mice at 12-16 weeks old were exposed to 40-50% ambient humidity and ventilation using a fan for 18 hours a day as dry stress and subcutaneously injected with 0.5 mg/0.2 mL muscarinic receptor blocker. In addition, scopolamine hydrobromide (Sigma-Aldrich, St. Louis, Mo.) was injected alternately to the […] hips four times a day for 10 days at 9 am, […].
(§2) After 10 days of ocular dry stress, the scopolamine injection was stopped, and switched to a normal humidity and temperature environment and the dry stress was removed, 10 mg/ml Hyp-[…] and collagen were dissolved in normal saline to administer 5 μL each 5 times a day for 10 days, and normal saline and 0.1% HA were administered to the eyeball 5 times a day for 10 days. Three mice were used in each of the six experimental groups using both eyes of the mice and all experiments were repeated.

[5] = system: conjunctival goblet cells; assay: Distribution of conjunctival goblet cells (PAS staining), dry eye model; assay type: in vivo, NOD.B10.H2b mice
Description: as §1, §2
The distribution of conjunctival goblet cells according to eye drop in dry eye mice was observed.

[6] = system: TNF-α, ICAM-1, VCAM-1, MMP-2 and MMP-9; details: 10 days of treatment after removal of dry stress
Description: as §1, §2

## hydroxy proline-GQDGLAGPK [Hyp-GQDGLAGPK]
[1]; 10 days treatment
  corneal neovascularization in H&E stained tissue: neovascularization was significantly improved
[1]; 10 days treatment, H&E
  histological changes of the cornea (epithelial proliferation, inflammatory cell invasion, edema, neovascularization): showed an advanced improvement effect
[1]; after 10 days of peptide treatment, normal 526.6, alkaline burn 960.6
  corneal thickness: 550.0 μm
[2]; 50 ng/ml VEGF
  concentration dependence of tube formation inhibition: concentration-dependent manner
  tube formation compared with the VEGF-untreated group: decreased to almost same extent of angiogenesis of the VEGF-untreated group
[2]; 50 ng/ml recombinant human VEGF, listed as CPII
  inhibition of tube formation (angiogenesis): significant inhibition of angiogenesis; also recorded: best anti-angiogenic efficacy; also recorded: best anti-angiogenic ability
[3]; 2 μg intraocular injection for 5 days, listed as CPII
  CNV lesions: reduced; also recorded: decreased
[3]; 5 μg intraocularly for 5 consecutive days, 14 days after laser, FITC-dextran flat-mount
  CNV lesion size vs control group: significantly decreased
VEGF, ICAM and MCP-1; laser-treated group increased about 10 times
  MCP-1 gene expression in retina and choroid: significantly decreased
VEGF, ICAM and MCP-1; laser-treated group increased about 55 times
  VEGF gene expression in retina and choroid: decreased to the level similar to that of the laser-untreated group
VEGF, ICAM and MCP-1; laser-treated group increased about 300 times
  ICAM gene expression in retina and choroid: significantly decreased
[4]
  protein expression of VEGF, VEGFR-1, -2 and Angiopoietin 2 compared with Avastin: almost similar to that of Avastin
[4]; immunoblotting
  protein expression of VEGF, VEGFR-1, VEGFR-2 and Angiopoietin 2 in retina and choroid: markedly decreased
Corneal epithelial cell; 10 days of treatment
  reduction of corneal epithelial cell detachment vs CsA group: 75%
  reduction of corneal epithelial cell detachment vs DQS group: 60%
  reduction of corneal epithelial cell detachment vs HA group: 77.8%
  reduction of corneal epithelial cell detachment vs collagen group: 55.6%
  reduction of corneal epithelial cell detachment vs dry stress (DS 10D): 83.3%
  reduction of corneal epithelial cell detachment vs normal saline group: 71.4%
Corneal epithelial cell; 10 days of treatment after removal of dry stress, DS 10D 2.29±0.57
  corneal epithelial cell detachment: 0.38±0.17 /0.1 mm^2
[5]; 10 days of treatment
  goblet cell recovery vs dry stress (DS 10D): 2.3 times
  goblet cells relative to CsA group: 1.2 times
  goblet cells relative to DQS group: 1.5 times
  goblet cells relative to HA group: 1.6 times
  goblet cells relative to collagen group: 1.3 times
  goblet cells relative to normal saline group: 2.6 times
[5]; 10 days of treatment after removal of dry stress
  distribution of goblet cells in the conjunctiva (in words): significantly increased
[5]; 10 days of treatment after removal of dry stress, normal 14.38±0.44, DS 10D 6.02±0.29
  conjunctival goblet cells: 13.9±0.83 /0.1 mm^2
[6]
  expression of inflammation-related factors in the lacrimal gland compared with CsA, DQS and HA treated mice: significantly inhibited
[6]; immunostaining
  expression of inflammation-related factors (TNF-α, ICAM-1, VCAM-1, MMP-2, MMP-9) in the lacrimal gland: markedly reduced
